Measurements reported in patent US7575882B2, “Compositions and methods for identifying modulators of TRPV2” (Janssen Pharmaceutica N. V., priority 2005, dated 2009).

Experiments:
Assay type in all cases: cell-based
[1] = test system: deletion mutants of rat TRPV2; assay: Calcium mobilization in HEK293 cells expressing rat TRPV2 deletion mutants; details: mutants lacking N-terminal 20, 32/33, 65/66 or C-terminal 11, 23, 32 residues
Source text: DNA molecules encoding the deletion mutants were amplified by PCR using the rat TRPV2 cDNA as the template. For amino-terminal deletions, a series N-terminal forward primers encoding an initiating methionine in frame with sequences matching adjacent regions of the desired start at residues G21 (mutant N20, SEQ ID NO:11), P33 (N32, SEQ ID NO:12), A66 (N65, SEQ ID NO:13) and V84 (N83, SEQ ID NO:14) paired with a C-terminal reverse primer were used for PCR amplification. While for carboxyl-terminal deletions, a forward N-terminal primer paired with a series C-terminal reverse primers ending at residues R706 (C51, SEQ ID NO:7), P729 (C32, SEQ ID NO:8), P738 (C23, SEQ ID NO:9) and E750 (C11, SEQ ID NO:10) with an in-frame stop codon at the terminal end of the open reading frame were used for amplification. After PCR amplification and purification, the DNA molecules encoding the deletion mutants were subcloned into the pCI-neo mammalian expression vector and the constructs were confirmed by DNA sequencing. […]
The deletion mutant constructs were then transfected into HEK293 cells using Fugene 6 reagent (Roche) as per the manufacturer's instructions. […] Calcium mobilization was triggered using Δ^9-THC or 2-APB or elevated temperature buffer and measured using either FLIPR or FLEX STATION instruments.

[2] = test system: untransfected HEK293 cells; assay: FLIPR calcium assay in untransfected HEK293 cells (control); details: 100 μM
human TRPV1 = target: T1, human TRPV1 (Homo sapiens, UniProt Q8NER1); assay: FLIPR assay in HEK293 cells expressing human TRPV1; details: Δ^9-THC 240 μM, cannabinol 600 μM, others 120 μM
T1 construct: expressed in transfected cells; host or cells: HEK293
Protocol: A selected number of cannabinoids were also tested against HEK293 cells expressing human TRPV1 and canine TRPM8 in the FLIRP assay.

Delta-9-tetrahydrocannabinol [Δ^9-THC]
response of rat TRPV2 deletion mutants to the compound [1]: still active
elevation of intracellular Ca2+ in untransfected HEK293 cells [2]: no significant intracellular Ca^+ elevation
activation of TRPV1 (human TRPV1): no significant activation
